Measured values from PubChem BioAssay AID190 (DTP/NCI, 2004).
Values joined by “and” are separate entries in the source; they are usually repeats but may differ in a detail not shown here. Identical values can stand only once. Inconclusive results and toxic doses are left out.

Test system: AKR/Lw mice, AKR lymphoma ip, median survival T/C
Experiment: NCI In Vivo Anticancer Drug Screen. Data for tumor model Lymphoma AKR (Transplanted) (intraperitoneal) in AKR/Lw mice
Settings: endpoint: median survival time, higher = longer survival
Procedure: The antitumor activity of compounds was measured in mice bearing transplantable tumors. Survival or tumor size were measured and the results are expressed as the measurement made in the treated group (T) divided by the measurement made in the vehicle treated control group (C). The tumor model used in this assay is Lymphoma AKR (Transplanted) (intraperitoneal) in AKR/Lw mice

[1] = dose: 100.0 mg/kg/injection, schedule: Q01DX001 (ip), vehicle: Klucel (hydroxypropylcellulose) (HPC)
[2] = dose: 200.0 mg/kg/injection, schedule: Q01DX001 (ip), vehicle: Klucel (hydroxypropylcellulose) (HPC)
[3] = dose: 400.0 mg/kg/injection, schedule: Q01DX001 (ip), vehicle: Klucel (hydroxypropylcellulose) (HPC)
[4] = dose: 100.0 mg/kg/injection, schedule: Q01DX001 (ip), vehicle: saline
[5] = dose: 200.0 mg/kg/injection, schedule: Q01DX001 (ip), vehicle: saline
[6] = dose: 400.0 mg/kg/injection, schedule: Q01DX001 (ip), vehicle: saline
[7] = dose: 12.5 mg/kg/injection, schedule: Q01DX001 (ip), vehicle: saline
[8] = dose: 25.0 mg/kg/injection, schedule: Q01DX001 (ip), vehicle: saline
[9] = dose: 50.0 mg/kg/injection, schedule: Q01DX001 (ip), vehicle: saline

For `O=C(/C=C/C(=O)Oc1ccc(Cl)cc1)Oc1ccc(Cl)cc1`, the T/C [1] was 92 % of control, the T/C [2] was 89 % of control and the T/C [3] was 107 % of control.

With `CC(=O)CC(=O)Nc1ccc([N+](=O)[O-])cc1` the T/C (dose: 50.0 mg/kg/injection, schedule: Q01DX001 (ip), vehicle: other) was 100 % of control, the T/C (dose: 100.0 mg/kg/injection, schedule: Q01DX001 (ip), vehicle: other) was 98 % of control and the T/C (dose: 100.0 mg/kg/injection, schedule: Q01DX001 (ip), vehicle: saline with Tween-80) was 96 % of control. For the same molecule, the T/C (dose: 200.0 mg/kg/injection, schedule: Q01DX001 (ip), vehicle: other) was 94 % of control, the T/C (dose: 400.0 mg/kg/injection, schedule: Q01DX001 (ip), vehicle: other) was 86 % of control and the T/C (dose: 400.0 mg/kg/injection, schedule: Q01DX001 (ip), vehicle: saline with Tween-80) was 92 % of control.

In the case of `CC(C)c1ccc(C(c2c(O)c3ccccc3oc2=O)c2c(O)c3ccccc3oc2=O)cc1`, the T/C [1] is reported as 113 % of control, the T/C [2] is reported as 106 % of control and the T/C [3] is reported as 90 % of control.

With `ClCCCNCc1ccccc1` the T/C [4] was 94 % of control.

In the case of `O=S1(=O)CC(O)C(Cl)C1` (stereo not drawn), the T/C [4] is reported as 91 % of control, the T/C [5] is reported as 91 % of control and the T/C [6] is reported as 95 % of control.

For `CC1(C)CCN1Cc1ccccc1`, the T/C [7] was 97 % of control, the T/C [8] was 100 % of control and the T/C [9] was 100 % of control.

`OCC1OC(n2cnc3c(Cl)ncnc32)C(O)C1O` (stereo not drawn) was tested, and the T/C (dose: 6.2 mg/kg/injection, schedule: Q01DX009 (ip), vehicle: saline) was 100 % of control, the T/C (dose: 12.5 mg/kg/injection, schedule: Q01DX009 (ip), vehicle: saline) was 94 % of control and 96 % of control and 105 % of control and the T/C (dose: 25.0 mg/kg/injection, schedule: Q04DX003 (ip), vehicle: saline) was 93 % of control. The T/C [9] was 100 % of control, the T/C (dose: 50.0 mg/kg/injection, schedule: Q04DX003 (ip), vehicle: saline) was 100 % of control and 113 % of control and 116 % of control and the T/C [4] was 94 % of control and 102 % of control and 110 % of control. For the same molecule, the T/C (dose: 100.0 mg/kg/injection, schedule: Q04DX003 (ip), vehicle: other) was 88 % of control, the T/C (dose: 150.0 mg/kg/injection, schedule: Q04DX003 (ip), vehicle: saline) was 100 % of control and the T/C (dose: 200.0 mg/kg/injection, schedule: Q01DX009 (ip), vehicle: saline) was 87 % of control and 101 % of control and 102 % of control. For the same molecule, the T/C (dose: 200.0 mg/kg/injection, schedule: Q04DX003 (ip), vehicle: other) was 113 % of control, the T/C (dose: 250.0 mg/kg/injection, schedule: Q04DX003 (ip), vehicle: saline) was 118 % of control and the T/C (dose: 400.0 mg/kg/injection, schedule: Q01DX009 (ip), vehicle: saline) was 90 % of control and 96 % of control. The T/C (dose: 400.0 mg/kg/injection, schedule: Q04DX003 (ip), vehicle: other) was 119 % of control and 123 % of control, the T/C (dose: 500.0 mg/kg/injection, schedule: Q04DX003 (ip), vehicle: saline) was 88 % of control and the T/C (dose: 600.0 mg/kg/injection, schedule: Q01DX001 (ip), vehicle: saline) was 90 % of control and 92 % of control. The T/C (dose: 600.0 mg/kg/injection, schedule: Q04DX003 (ip), vehicle: saline) was 90 % of control (2×) and 113 % of control.

With `CC1(C)N=C(N)N=C(N)N1c1cc(Cl)ccc1Cl` the T/C [8] was 93 % of control and the T/C [9] was 93 % of control.

For `CCCCCCCCC(=O)N1CC(C)OC(C)C1` (stereo not drawn), the T/C [4] was 100 % of control, the T/C [5] was 94 % of control and the T/C [6] was 100 % of control.

In the case of `O=NN(CCCl)C(=O)NCCCl`, the T/C (dose: 0.12 mg/kg/injection, schedule: Q01DX009 (ip), vehicle: saline) is reported as 105 % of control, the T/C (dose: 0.25 mg/kg/injection, schedule: Q01DX009 (ip), vehicle: saline) is reported as 87 % of control and 107 % of control and the T/C (dose: 0.25 mg/kg/injection, schedule: Q04DX003 (ip), vehicle: saline) is reported as 90 % of control and 97 % of control. For the same molecule, the T/C (dose: 0.5 mg/kg/injection, schedule: Q04DX004 (ip), vehicle: saline) was 96 % of control, the T/C (dose: 1.0 mg/kg/injection, schedule: Q04DX004 (ip), vehicle: saline) was 108 % of control and 112 % of control and the T/C (dose: 1.5 mg/kg/injection, schedule: Q04DX003 (ip), vehicle: saline) was 107 % of control. The T/C (dose: 1.5 mg/kg/injection, schedule: Q07DX003 (ip), vehicle: saline) was 87 % of control and 118 % of control, the T/C (dose: 2.5 mg/kg/injection, schedule: Q04DX003 (ip), vehicle: saline) was 93 % of control and the T/C (dose: 3.0 mg/kg/injection, schedule: Q01DX001 (ip), vehicle: saline) was 100 % of control and 114 % of control. The T/C (dose: 3.0 mg/kg/injection, schedule: Q01DX009 (ip), vehicle: saline) was 87 % of control, the T/C (dose: 3.0 mg/kg/injection, schedule: Q04DX003 (ip), vehicle: saline) was 86 % of control and the T/C (dose: 3.0 mg/kg/injection, schedule: Q07DX003 (ip), vehicle: saline) was 109 % of control and 121 % of control. For the same molecule, the T/C (dose: 3.13 mg/kg/injection, schedule: Q04DX003 (ip), vehicle: water) was 98 % of control, the T/C (dose: 3.75 mg/kg/injection, schedule: Q01DX001 (ip), vehicle: saline) was 117 % of control and the T/C (dose: 4.0 mg/kg/injection, schedule: Q04DX004 (ip), vehicle: saline) was 153 % of control. The T/C (dose: 5.0 mg/kg/injection, schedule: Q01DX001 (ip), vehicle: saline) was 93 % of control and 100 % of control and 103 % of control, the T/C (dose: 5.0 mg/kg/injection, schedule: Q01DX009 (ip), vehicle: saline) was 333 % of control and the T/C (dose: 5.0 mg/kg/injection, schedule: Q04DX003 (ip), vehicle: saline) was 103 % of control. For the same molecule, the T/C (dose: 5.0 mg/kg/injection, schedule: Q10DX004 (ip), vehicle: saline) was 103 % of control, the T/C (dose: 6.0 mg/kg/injection, schedule: Q04DX003 (ip), vehicle: saline) was 97 % of control and the T/C (dose: 6.0 mg/kg/injection, schedule: Q07DX003 (ip), vehicle: saline) was 100 % of control and 118 % of control. The T/C (dose: 6.2 mg/kg/injection, schedule: Q01DX001 (ip), vehicle: saline) was 106 % of control, the T/C (dose: 6.25 mg/kg/injection, schedule: Q04DX003 (ip), vehicle: water) was 124 % of control and the T/C (dose: 7.5 mg/kg/injection, schedule: Q01DX001 (ip), vehicle: saline) was 118 % of control. The T/C (dose: 8.0 mg/kg/injection, schedule: Q04DX004 (ip), vehicle: saline) was 171 % of control, the T/C (dose: 10.0 mg/kg/injection, schedule: Q01DX009 (ip), vehicle: saline) was 97 % of control and the T/C (dose: 10.0 mg/kg/injection, schedule: Q04DX003 (ip), vehicle: saline) was 106 % of control. For the same molecule, the T/C (dose: 10.0 mg/kg/injection, schedule: Q10DX004 (ip), vehicle: saline) was 111 % of control, the T/C (dose: 10.0 mg/kg/injection, schedule: Q14DX003 (ip), vehicle: saline) was 123 % of control and the T/C [7] was 118 % of control. For the same molecule, the T/C (dose: 12.5 mg/kg/injection, schedule: Q04DX003 (ip), vehicle: water) was 88 % of control, the T/C (dose: 15.0 mg/kg/injection, schedule: Q10DX004 (ip), vehicle: saline) was 113 % of control and the T/C (dose: 15.0 mg/kg/injection, schedule: Q14DX003 (ip), vehicle: saline) was 98 % of control. For the same molecule, the T/C (dose: 16.0 mg/kg/injection, schedule: Q01DX009 (ip), vehicle: saline) was 97 % of control, the T/C (dose: 16.0 mg/kg/injection, schedule: Q04DX004 (ip), vehicle: saline) was 168 % of control and the T/C (dose: 20.0 mg/kg/injection, schedule: Q01DX009 (ip), vehicle: saline) was 97 % of control. For the same molecule, the T/C (dose: 20.0 mg/kg/injection, schedule: Q10DX004 (ip), vehicle: saline) was 101 % of control, the T/C (dose: 20.0 mg/kg/injection, schedule: Q14DX003 (ip), vehicle: saline) was 115 % of control and the T/C (dose: 24.0 mg/kg/injection, schedule: Q01DX001 (ip), vehicle: saline) was 86 % of control. For the same molecule, the T/C (dose: 25.0 mg/kg/injection, schedule: Q04DX003 (ip), vehicle: water) was 108 % of control, the T/C (dose: 32.0 mg/kg/injection, schedule: Q04DX004 (ip), vehicle: saline) was 103 % of control and the T/C (dose: 45.0 mg/kg/injection, schedule: Q01DX001 (ip), vehicle: saline) was 54 % of control and 95 % of control. The T/C (dose: 60.0 mg/kg/injection, schedule: Q01DX001 (ip), vehicle: saline) was 23 % of control and 86 % of control.

For `C/C=C(/C)N(C(C)=O)N(C(C)=O)c1ccc([N+](=O)[O-])cc1[N+](=O)[O-]`, the T/C [1] was 93 % of control, the T/C [2] was 93 % of control and the T/C (dose: 200.0 mg/kg/injection, schedule: Q04DX003 (ip), vehicle: Klucel (hydroxypropylcellulose) (HPC)) was 93 % of control. For the same molecule, the T/C [3] was 93 % of control.

In the case of `O=C1c2ccccc2-c2ncccc21`, the T/C [1] is reported as 100 % of control, the T/C [2] is reported as 120 % of control and the T/C [3] is reported as 93 % of control.

In the case of `CC(C)(CNc1ccc(C(=O)O)cc1)[N+](=O)[O-]`, the T/C [4] is reported as 102 % of control, the T/C [5] is reported as 95 % of control and the T/C [6] is reported as 86 % of control.
